Measurements reported in article PMC11503492, “Activity-Based DNA-Encoded Library Screening for Selective Inhibitors of Eukaryotic Translation” (ACS Central Science, 2024).
Entries after “also recorded” stand apart in the source; their conditions may differ.

Key:
[1] = test system: MST1[1:39]-GFP translation; test: WG IVTT activity assay, MST1[1:39]-GFP template; format: biochemical, wheat germ; details: WG IVTT dose-response
Protocol: page 21: 421 region sequences were matched to an alpha numeric DNA region identifier (11[…], respectively), while allowing a 1-bp mutation per encoding region. 423 No insertions or deletions were tolerated. […] A sum of UMI counts for all remaining unique combinations 429 of encoding region identifiers was then determined using a UMI aggregation algorithm; 430 1 bp mutations were considered the same UMI. Encoding region identifiers were then 431 converted to library BB identifiers per the library design with an associated UMI count. 432 Any encoding region/ bead-specific barcode combinations with a UMI count below a 433 manually determined threshold (10) were discarded. The remaining ”valid beads” were 434 aggregated by cycle 1/2 BB combinations and the number of unique encoding regions 435 observed for each BB combination defined the k-class for that BB combination.S8 436 Microplate IVTT Assays 437 Wheat germ lysate IVTT plate assays were prepared as 5 μL reactions. […] Template (1 μL) was added and reaction 440 progress was immediately monitored (λex = 480 nm, λem = 530 nm, 27 °C, 2 h). […] activity was calculated using the slope of fluorescence increase over time (at 15-30 442 min post reaction initiation) for compound samples relative to that of the DMSO vehicle 443 control. […]

[2] = test system: PCSK9[1:33]-GFP in vitro transcription; test: PCSK9[1:33]-GFP T7 in vitro transcription reaction, agarose gel; format: biochemical; details: PCSK9[1:33]-GFP T7 transcription, 1.5% agarose gel
Protocol: Figure S10. Activity of compounds 8 and 9 on transcription. (A) Screening hits 8 and 9 were analyzed in dose-response IVTT activity assays of PCSK9[1:33]-GFP initiated with DNA (black) and RNA (gray) template. (B) Products of PCSK9[1:33]-GFP T7 transcription reactions incubated with DMSO, screening hits 8 and 9, or PF846 were visualized on a 1.5% agarose gel
(1 picture or pasted object on this page, not shown here)

Q: For Cc1cccc2ccnc(N(C(=O)[C@H]3CCCN(C(=O)c4cccc5c(C#N)c[nH]c45)C3)[C@@H]3CCCNC3)c12 [Compound 8], which “activity on MST1[1:39]-GFP translation (in words)” value [1] is on record?
A: The value was “inactive”.

Q: With Cc1cccc2ccnc(N(C(=O)C3CCN(C(=O)c4cccc5c(C#N)c[nH]c45)CC3)[C@@H]3CCCNC3)c12 [Compound 9] as the molecule, how does the “effect on in vitro transcription product (in words)” value [2] read?
A: The value was “no visible transcript product; also recorded: completely eliminates RNA yield; also recorded: nonselectively inhibits transcription”.
